What was measured:
Test in all cases: Test C pre/postemergence
Assay type in all cases: in vivo
Conditions in all cases: Postemergence
[1] = test system: cocklebur (Xanthium strumarium)
Summary of the method: (§1)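 We sprayed seeded pots preemergence and 2–18 cm seedlings postemergence with test chemicals in a non-phytotoxic solvent mixture including surfactant. Greenhouse plants were visually compared with untreated controls at 12 to 14 days and scored 0 (no effect) to 100 (complete control).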

[2] = test system: common ragweed (Ambrosia elatior)
Summary of the method: as §1

[3] = test system: crabgrass (Digitaria sanguinalis)
Summary of the method: as §1

[4] = test system: giant foxtail (Setaria faberii)
Summary of the method: as §1

[5] = test system: kochia (Kochia scoparia)
Summary of the method: as §1

[6] = test system: morningglory (Ipomoea coccinea)
Summary of the method: as §1

[7] = test system: pigweed (Amaranthus retroflexus)
Summary of the method: as §1

[8] = test system: velvetleaf (Abutilon theophrasti)
Summary of the method: as §1

[9] = test system: woolly cupgrass (Eriochloa villosa)
Summary of the method: as §1

[10] = test system: yellow nutsedge (Cyperus esculentus)
Summary of the method: as §1

[11] = 125 g ai/ha, scale 0 to 100 (0 no effect, 100 complete control)

SMILES: CCOC(=O)c1nc(-c2ccc(Br)cc2)nc(N)c1Cl [Compound 94, ethyl 6-amino-2-(4-bromophenyl)-5-chloro-4-pyrimidinecarboxylate]
- pest or weed control at 16 g/ha ([1]; Xanthium strumarium, post-emergence, 16 g ai/ha, read-out: Plant response rating (scale of 0 to 100), Cocklebur): 75%
- pest or weed control at 31 g/ha ([1]; Xanthium strumarium, post-emergence, 31 g ai/ha, read-out: Plant response rating (scale of 0 to 100), Cocklebur): 80%
- pest or weed control at 62 g/ha ([1]; Xanthium strumarium, post-emergence, 62 g ai/ha, read-out: Plant response rating (scale of 0 to 100), Cocklebur): 90%
- pest or weed control at 125 g/ha ([1]; Xanthium strumarium, post-emergence, 125 g ai/ha, scale 0 to 100 (0 no effect, 100 complete control), read-out: Cocklebur plant response rating): 100%
- pest or weed control at 16 g/ha ([2]; Ambrosia artemisiifolia, post-emergence, 16 g ai/ha, read-out: Plant response rating (scale of 0 to 100), Ragweed): 90%
- pest or weed control at 31 g/ha ([2]; Ambrosia artemisiifolia, post-emergence, 31 g ai/ha, read-out: Plant response rating (scale of 0 to 100), Ragweed): 90%
- pest or weed control at 62 g/ha ([2]; Ambrosia artemisiifolia, post-emergence, 62 g ai/ha, read-out: Plant response rating (scale of 0 to 100), Ragweed): 95%
- pest or weed control at 125 g/ha ([2]; Ambrosia artemisiifolia, post-emergence, 125 g ai/ha, scale 0 to 100 (0 no effect, 100 complete control), read-out: Ragweed plant response rating): 100%
- pest or weed control at 16 g/ha ([3]; Digitaria sanguinalis, post-emergence, 16 g ai/ha, read-out: Plant response rating (scale of 0 to 100), Crabgrass): 70%
- pest or weed control at 31 g/ha ([3]; Digitaria sanguinalis, post-emergence, 31 g ai/ha, read-out: Plant response rating (scale of 0 to 100), Crabgrass): 80%
- pest or weed control at 62 g/ha ([3]; Digitaria sanguinalis, post-emergence, 62 g ai/ha, read-out: Plant response rating (scale of 0 to 100), Crabgrass): 85%
- pest or weed control at 125 g/ha ([3]; Digitaria sanguinalis, post-emergence, 125 g ai/ha, scale 0 to 100 (0 no effect, 100 complete control), read-out: Crabgrass plant response rating): 85%
- pest or weed control at 125 g/ha ([4]; Setaria faberi, post-emergence, 125 g ai/ha, scale 0 to 100 (0 no effect, 100 complete control), read-out: Foxtail, Giant plant response rating): 80%
- pest or weed control at 16 g/ha ([4]; Setaria faberi, post-emergence, 16 g ai/ha, read-out: Plant response rating (scale of 0 to 100), Foxtail, Giant): 30%
- pest or weed control at 31 g/ha ([4]; Setaria faberi, post-emergence, 31 g ai/ha, read-out: Plant response rating (scale of 0 to 100), Foxtail, Giant): 65%
- pest or weed control at 62 g/ha ([4]; Setaria faberi, post-emergence, 62 g ai/ha, read-out: Plant response rating (scale of 0 to 100), Foxtail, Giant): 80%
- pest or weed control at 16 g/ha ([5]; Bassia scoparia, post-emergence, 16 g ai/ha, read-out: Plant response rating (scale of 0 to 100), Kochia): 75%
- pest or weed control at 31 g/ha ([5]; Bassia scoparia, post-emergence, 31 g ai/ha, read-out: Plant response rating (scale of 0 to 100), Kochia): 90%
- pest or weed control at 62 g/ha ([5]; Bassia scoparia, post-emergence, 62 g ai/ha, read-out: Plant response rating (scale of 0 to 100), Kochia): 95%
- pest or weed control at 125 g/ha ([5]; Bassia scoparia, post-emergence, 125 g ai/ha, scale 0 to 100 (0 no effect, 100 complete control), read-out: Kochia plant response rating): 100%
- pest or weed control at 16 g/ha ([6]; Ipomoea, post-emergence, 16 g ai/ha, read-out: Plant response rating (scale of 0 to 100), Morningglory): 60%
- pest or weed control at 31 g/ha ([6]; Ipomoea, post-emergence, 31 g ai/ha, read-out: Plant response rating (scale of 0 to 100), Morningglory): 80%
- pest or weed control at 62 g/ha ([6]; Ipomoea, post-emergence, 62 g ai/ha, read-out: Plant response rating (scale of 0 to 100), Morningglory): 90%
- pest or weed control at 125 g/ha ([6]; Ipomoea, post-emergence, 125 g ai/ha, scale 0 to 100 (0 no effect, 100 complete control), read-out: Morningglory plant response rating): 100%
- pest or weed control at 16 g/ha ([7]; Amaranthus retroflexus, post-emergence, 16 g ai/ha, read-out: Plant response rating (scale of 0 to 100), Pigweed): 95%
- pest or weed control at 31 g/ha ([7]; Amaranthus retroflexus, post-emergence, 31 g ai/ha, read-out: Plant response rating (scale of 0 to 100), Pigweed): 100%
- pest or weed control at 62 g/ha ([7]; Amaranthus retroflexus, post-emergence, 62 g ai/ha, read-out: Plant response rating (scale of 0 to 100), Pigweed): 100%
- pest or weed control at 125 g/ha ([7]; Amaranthus retroflexus, post-emergence, 125 g ai/ha, scale 0 to 100 (0 no effect, 100 complete control), read-out: Pigweed plant response rating): 100%
- pest or weed control at 16 g/ha ([8]; Abutilon theophrasti, post-emergence, 16 g ai/ha, read-out: Plant response rating (scale of 0 to 100), Velvetleaf): 75%
- pest or weed control at 31 g/ha ([8]; Abutilon theophrasti, post-emergence, 31 g ai/ha, read-out: Plant response rating (scale of 0 to 100), Velvetleaf): 90%
- pest or weed control at 62 g/ha ([8]; Abutilon theophrasti, post-emergence, 62 g ai/ha, read-out: Plant response rating (scale of 0 to 100), Velvetleaf): 95%
- pest or weed control at 125 g/ha ([8]; Abutilon theophrasti, post-emergence, 125 g ai/ha, scale 0 to 100 (0 no effect, 100 complete control), read-out: Velvetleaf plant response rating): 95%
- pest or weed control at 16 g/ha ([9]; Eriochloa villosa, post-emergence, 16 g ai/ha, read-out: Plant response rating (scale of 0 to 100), Cupgrass, Woolly): 60%
- pest or weed control at 31 g/ha ([9]; Eriochloa villosa, post-emergence, 31 g ai/ha, read-out: Plant response rating (scale of 0 to 100), Cupgrass, Woolly): 80%
- pest or weed control at 62 g/ha ([9]; Eriochloa villosa, post-emergence, 62 g ai/ha, read-out: Plant response rating (scale of 0 to 100), Cupgrass, Woolly): 90%
- pest or weed control at 125 g/ha ([9]; Eriochloa villosa, post-emergence, 125 g ai/ha, scale 0 to 100 (0 no effect, 100 complete control), read-out: Cupgrass, Woolly plant response rating): 90%
- pest or weed control at 16 g/ha ([10]; Cyperus, post-emergence, 16 g ai/ha, read-out: Plant response rating (scale of 0 to 100), Nutsedge, Yellow): 55%
- pest or weed control at 31 g/ha ([10]; Cyperus, post-emergence, 31 g ai/ha, read-out: Plant response rating (scale of 0 to 100), Nutsedge, Yellow): 60%
- pest or weed control at 62 g/ha ([10]; Cyperus, post-emergence, 62 g ai/ha, read-out: Plant response rating (scale of 0 to 100), Nutsedge, Yellow): 70%
- pest or weed control at 125 g/ha ([10]; Cyperus, post-emergence, 125 g ai/ha, scale 0 to 100 (0 no effect, 100 complete control), read-out: Nutsedge, Yellow plant response rating): 75%

SMILES: CCOC(=O)c1nc(-c2ccc(I)cc2)nc(N)c1Cl [Compound 133]
- Plant response rating (scale of 0 to 100), Cocklebur ([1]; 16 g ai/ha): 75
- Plant response rating (scale of 0 to 100), Cocklebur ([1]; 31 g ai/ha): 85
- Plant response rating (scale of 0 to 100), Cocklebur ([1]; 62 g ai/ha): 95
- Cocklebur plant response rating [1, 11]: 95
- Plant response rating (scale of 0 to 100), Ragweed ([2]; 16 g ai/ha): 80
- Plant response rating (scale of 0 to 100), Ragweed ([2]; 31 g ai/ha): 80
- Plant response rating (scale of 0 to 100), Ragweed ([2]; 62 g ai/ha): 85
- Ragweed plant response rating [2, 11]: 95
- Plant response rating (scale of 0 to 100), Crabgrass ([3]; 16 g ai/ha): 50
- Plant response rating (scale of 0 to 100), Crabgrass ([3]; 31 g ai/ha): 75
- Plant response rating (scale of 0 to 100), Crabgrass ([3]; 62 g ai/ha): 75
- Crabgrass plant response rating [3, 11]: 80
- Plant response rating (scale of 0 to 100), Foxtail, Giant ([4]; 16 g ai/ha): 15
- Plant response rating (scale of 0 to 100), Foxtail, Giant ([4]; 31 g ai/ha): 60
- Plant response rating (scale of 0 to 100), Foxtail, Giant ([4]; 62 g ai/ha): 70
- Foxtail, Giant plant response rating [4, 11]: 75
- Plant response rating (scale of 0 to 100), Kochia ([5]; 16 g ai/ha): 75
- Plant response rating (scale of 0 to 100), Kochia ([5]; 31 g ai/ha): 80
- Plant response rating (scale of 0 to 100), Kochia ([5]; 62 g ai/ha): 85
- Kochia plant response rating [5, 11]: 85
- Plant response rating (scale of 0 to 100), Morningglory ([6]; 16 g ai/ha): 80
- Plant response rating (scale of 0 to 100), Morningglory ([6]; 31 g ai/ha): 90
- Plant response rating (scale of 0 to 100), Morningglory ([6]; 62 g ai/ha): 100
- Morningglory plant response rating [6, 11]: 100
- Plant response rating (scale of 0 to 100), Pigweed ([7]; 16 g ai/ha): 85
- Plant response rating (scale of 0 to 100), Pigweed ([7]; 31 g ai/ha): 85
- Plant response rating (scale of 0 to 100), Pigweed ([7]; 62 g ai/ha): 95
- Pigweed plant response rating [7, 11]: 100
- Plant response rating (scale of 0 to 100), Velvetleaf ([8]; 16 g ai/ha): 80
- Plant response rating (scale of 0 to 100), Velvetleaf ([8]; 31 g ai/ha): 85
- Plant response rating (scale of 0 to 100), Velvetleaf ([8]; 62 g ai/ha): 85
- Velvetleaf plant response rating [8, 11]: 95
- Plant response rating (scale of 0 to 100), Cupgrass, Woolly ([9]; 16 g ai/ha): 35
- Plant response rating (scale of 0 to 100), Cupgrass, Woolly ([9]; 31 g ai/ha): 50
- Plant response rating (scale of 0 to 100), Cupgrass, Woolly ([9]; 62 g ai/ha): 60
- Cupgrass, Woolly plant response rating [9, 11]: 70
- Plant response rating (scale of 0 to 100), Nutsedge, Yellow ([10]; 16 g ai/ha): 60
- Plant response rating (scale of 0 to 100), Nutsedge, Yellow ([10]; 31 g ai/ha): 75
- Plant response rating (scale of 0 to 100), Nutsedge, Yellow ([10]; 62 g ai/ha): 75
- Nutsedge, Yellow plant response rating [10, 11]: 80

Source: patent US8802597B2, “Herbicidal pyrimidines” (E I du Pont de Nemours and Company, priority 2003, dated 2014)
